Measurements reported in EP0794185A1, “BICYCLIC THIAZOLE COMPOUND” (MEIJI SEIKA KABUSHIKI KAISHA, priority 1994, dated 1996).

Experiments:
[1] = system: hyperlocomotion induced by methamphetamine in mice; experiment: Anti-methamphetamine effect: inhibition of hyperlocomotion induced by methamphetamine in mice; type: in vivo, Male ddY mice; conditions: Mus musculus, 0.25 h, ip, 15 min after methamphetamine 2 mg/kg sc, locomotion measured for thirty minutes
Protocol: The antipsychotic activity of the compound according to the present invention was assayed by an index the inhibitory activity on the stimulation of hyperlocomotion induced by methamphetamine in mice. Male ddY mice having a weight of 25 - 35 g were divided into groups each consisting of 3 - 6 animals. The mouse was subcutaneously administered with methamphetamine (2 mg/kg). Fifteen minutes after this administration, the compound of the present invention was intraperitoneally administered. After further fifteen minutes, the animal was then placed in a transparent acrylic box (30 cm x 30 cm x 30 cm) mounted on an apparatus to measure the locomotion for thirty minutes (MUROMACHI KIKAI, ANIMEX AUTO MK-110).

catalepsy = experiment: Cataleptogenic effect (extrapyramidal effect, catalepsy provoking activity) in mice; conditions: male, ddY, mouse, in vivo, ip, catalepsy observed after 20, 30 and 40 minutes
Protocol: The extrapyramidal effect of the compounds according to the present invention was assayed by an index the catalepsy provoking activity as a representative pharmacological evaluation method of the extrapyramidal effect. Male ddY mice having a body weight of 25 - 35 g which were divided into groups each consisting of 3 - 6 animals were subjected to the test. The compound of the present invention was administered intraperitoneally to observe catalepsy after 20, 30 and 40 minutes, respectively. Catalepsy was judged as positive in such cases that a mouse whose front paw was compulsorily hung up on an iron bar having a diameter of 1 mm and horizontally laid at a height of 3 cm remained in such a strained posture for more than 30 seconds. […]

serotonin-5-HT2 receptor = molecular target: T1, serotonin-5-HT2 receptor (Rattus norvegicus, UniProt P14842); experiment: Binding to serotonin-5-HT2 receptor, [3H]ketanserin, P2 fraction of rat cerebral cortex; conditions: read-out: Inhibition at 10^-9 M (%)
T1 construct: a 5-HT2 receptor of a rat cerebral cortex; from tissue; host or cells: rat cerebral cortex, P2 membrane fraction
T1 sequence (P14842 whole entry): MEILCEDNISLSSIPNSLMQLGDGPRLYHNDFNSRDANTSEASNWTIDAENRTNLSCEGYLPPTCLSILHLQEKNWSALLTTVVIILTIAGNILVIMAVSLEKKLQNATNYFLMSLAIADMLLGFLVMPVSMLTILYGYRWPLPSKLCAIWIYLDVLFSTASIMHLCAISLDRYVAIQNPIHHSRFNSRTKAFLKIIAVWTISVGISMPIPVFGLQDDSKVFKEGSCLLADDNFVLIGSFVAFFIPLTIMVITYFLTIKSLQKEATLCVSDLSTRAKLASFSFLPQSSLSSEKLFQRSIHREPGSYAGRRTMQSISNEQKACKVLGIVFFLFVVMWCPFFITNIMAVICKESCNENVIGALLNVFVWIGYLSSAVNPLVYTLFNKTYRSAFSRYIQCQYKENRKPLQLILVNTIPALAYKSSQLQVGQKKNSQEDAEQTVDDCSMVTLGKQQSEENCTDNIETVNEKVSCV
Protocol: The affinity of the compound of the present invention for a 5-HT2 receptor of a rat cerebral cortex was assayed as follows. A P2 fraction was prepared in the same manner as described above in connection with the above (a). The P2 fraction was incubated at 37°C for 15 min in a 50 mM Tris/HCl buffer (pH 7.4) containing 1 nM [^3H]ketanserin and the compound of the present invention with various concentrations, and the amount of bound [^3H]ketanserin was then measured.

dopamine-D2 receptor = molecular target: T2, dopamine-D2 receptor (Rattus norvegicus, UniProt P61169); experiment: Binding to dopamine-D2 receptor, [3H]spiperone, P2 fraction of rat cerebral corpus striatum; conditions: read-out: Inhibition at 10^-7 M (%)
T2 construct: using a P2 fraction of a rat cerebral corpus striatum; from tissue; host or cells: rat cerebral corpus striatum, P2 membrane fraction
T2 sequence (P61169 whole entry): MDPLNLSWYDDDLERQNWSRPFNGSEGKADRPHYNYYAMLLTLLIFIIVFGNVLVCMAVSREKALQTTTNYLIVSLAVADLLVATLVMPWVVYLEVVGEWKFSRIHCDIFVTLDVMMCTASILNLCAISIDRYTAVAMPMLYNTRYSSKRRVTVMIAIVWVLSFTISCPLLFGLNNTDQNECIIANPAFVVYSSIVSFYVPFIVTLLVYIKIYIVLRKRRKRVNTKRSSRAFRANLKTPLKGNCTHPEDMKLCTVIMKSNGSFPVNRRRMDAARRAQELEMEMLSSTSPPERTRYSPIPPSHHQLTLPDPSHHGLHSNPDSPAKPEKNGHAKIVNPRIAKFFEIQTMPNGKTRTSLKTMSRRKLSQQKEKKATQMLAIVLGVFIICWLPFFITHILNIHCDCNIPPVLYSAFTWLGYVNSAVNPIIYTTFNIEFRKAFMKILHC
Protocol: The affinity of the compound of the present invention for D2 receptors was studied using a P2 fraction of a rat cerebral corpus striatum. The rat cerebral corpus striatum was homogenized in 0.32 M sucrose in an amount of 10 times that of the rat cerebral corpus striatum, and the homogenate was centrifuged at 900 x g for 10 min. […] An incubation buffer (50 mM Tris, 120 mM NaCl, 5 mM KCl, 1 mM MgCl2, 1 mM CaCl2, pH 7.4) was added to the sediment, and the mixture was then centrifuged at 39,000 x g for 20 min. The sediment was obtained as a P2 fraction. The P2 fraction was incubated at 37°C for 30 min in a buffer containing 0.1 nM [^3H]spiperone and the compound of the present invention with various concentrations. The reaction solution was filtered through a Whatman GF/B glass filter, and the amount of bound [^3H]spiperone was measured by a liquid scintillation counter.

Structure (SMILES): Cc1cc(=O)n2c(C)c(CCN3CCC(c4noc5cc(F)ccc45)CC3)sc2n1 [Example 4, 3,7-Dimethyl-2-[2-[4-(6-fluoro-1,2-benzisoxazol-3-yl)-1-piperidinyl]ethyl]-5H-thiazolo[3,2-a]pyrimidin-5-one]
- ED50 [1]: 0.07 mg/kg
- ED50 (catalepsy): 1.2 mg/kg

Structure (SMILES): CN(C)CCCN1c2ccccc2Sc2ccc(Cl)cc21 [Chlorpromazine, chlorpromazine, reference compound]
- ED50 [1]: 1.1 mg/kg
- ED50 (catalepsy): 6.2 mg/kg

Structure (SMILES): Cc1cc(=O)n2c(CCN3CCC(c4noc5cc(F)ccc45)CC3)csc2n1 [Example 20, 3-[2-[4-(6-Fluoro-1,2-benzisoxazol-3-yl)-1-piperidinyl]ethyl]-5H-7-methylthiazolo[3,2-a]pyrimidin-5-one]
- inhibition at 0.001 µM (serotonin-5-HT2 receptor): 66.3%
- ED50 [1]: 0.04 mg/kg

Structure (SMILES): Cc1cc(=O)n2c(C)c(CCN3CCC(c4csc5cc(F)ccc45)CC3)sc2n1 [Example 8, 3,7-Dimethyl-2-[2-[4-(6-fluoro-1-benzothiophen-3-yl)-1-piperidinyl]ethyl]-5H-thiazolo[3,2-a]pyrimidin-5-one]
- inhibition at 0.1 µM (dopamine-D2 receptor): 95.2%

Structure (SMILES): Cc1cn2c(C)c(CCN3CCC(c4noc5cc(F)ccc45)CC3)sc2n1 [Example 11, 3,6-Dimethyl-2-[2-[4-(6-fluoro-1,2-benzisoxazol-3-yl)-1-piperidinyl]ethyl]imidazo[2,1-b]thiazole]
- ED50 [1]: 0.12 mg/kg
- ED50 (catalepsy): 3.3 mg/kg

Structure (SMILES): O=C(CCCN1CCC(O)(c2ccc(Cl)cc2)CC1)c1ccc(F)cc1 [Haloperidol, haloperidol, reference compound]
- ED50 [1]: 0.2 mg/kg
- ED50 (catalepsy): 1.3 mg/kg
